Experiments:
[1] = biological target: C3 convertase (CVF:Bb) (Homo sapiens, UniProt P00751); test: C3 Convertase Assay (biochemical assay, compound contacted with CVF:Bb, then C3 substrate added)
Excerpt: Various technologies are available for assessing provided compounds, compositions and methods. In some embodiments, a useful assay is an assay described below. […] In some embodiments, a purified, isolated or enriched C3 convertase is utilized. […] In some embodiments, a compound was first contacted with CVF:Bb, followed by addition of C3 substrates. As those skilled in the art will appreciate, products C3a and/or C3b could be detected through a number of technologies (e.g., antibodies specific for a product) and reduction of levels of one or both of them could be utilized to assess inhibition.

[2] = system: complement alternative pathway; test: Wieslab AP assay (Complement Alternative Pathway ELISA, human serum as source of complement); format: biochemical; details: read-out: B: Wieslab AP IC50 (nM) (alternative pathway)
Excerpt: Among other things, the present disclosure provides compounds and compositions that can modulate complement activation. In some embodiments, provided technologies inhibit complement activation. In some embodiments, provided technologies inhibit C3 convertase. Various technologies are available for assessing provided compounds, compositions and methods. In some embodiments, a useful assay is an assay described below. In some embodiments, IC50 of a provided compound measured in an assay is about or no more than about 1000, 900, 800, 700, 600, 500, 400, 300, 200, 100, 90, 80, 70, 60, 50, 40, 30, 20, or 10 nM. In some embodiments, a useful assay is a biochemical assay assessing inhibition of C3 convertase activity by a provided compound. In some embodiments, a purified, isolated or enriched C3 convertase is utilized. In some embodiments, CVF:Bb (e.g., assembled from three components Cobra Venom Factor (CVF), Complement Factor B (FB) and Complement Factor D (FD)) was utilized (certain results are presented as “A” in the Table below). In some embodiments, a compound was first contacted with CVF:Bb, followed by addition of C3 substrates. As those skilled in the art will appreciate, products C3a and/or C3b could be detected through a number of technologies (e.g., antibodies specific for a product) and reduction of levels of one or both of them could be utilized to assess inhibition. In some embodiments, a useful assay is Wieslab© assay (certain results are presented as “B” in the Table below).
In some embodiments, classical and alternative pathway activity are assessed using Wieslab© technologies. In some embodiments, Wieslab© assay were performed with a commercially available kit, using a protocol adapted for measurement of complement inhibitory activity of compounds. In some embodiments, human serum was utilized as a positive control. In some embodiments, human serum serves as a source of complement proteins, and inhibition of complement activity of a serum by various compounds were assessed. In some embodiments, a kit is COMPL AP330, Complement Alternative Pathway ELISA, Eagle Biosciences. In some embodiments, a kit is COMPL CP310, Complement Classical Pathway ELISA, Eagle Biosciences. In some embodiments, kits are available from VWR (102994-104, Complement Alternative pathway ELISA, Eagle Biosciences, Inc.; 102994-106, Complement Classical pathway ELISA, Eagle Biosciences, Inc.).
In some embodiments, a useful procedure described below is utilized. • 1. Make fresh test compound stock at 1 mM. • 2. Test compound serial dilution: dilute the stock to working stock concentrations. Add DMSO to dilution buffer using same dilution factor for the working stock so the composition of all the serial diluted stock is the same. In some embodiments, stock was serial diluted from the working stock 1:4 (for classical pathway) or 1:2 (for alternative pathway) using new diluted dilution buffers. • 3. Dilute positive controls using the dilution buffer provided with the assay kit to 2× of the final conc., for classical pathway, 50.5×. Positive control is human serum, which contains complement proteins. • 4. Add 125 μL of test compound solution and 125 μL of diluted positive control to a 96 well polypropylene plate, mix gently and cover the plate and incubate at 4° C. for 30 min. • 5. Add 100 μL/well to the assay plate and incubate at 37° C. for 1 h. Typically, controls in the assay plate, for example, buffer alone for negative control, positive control alone to verify the complement activity of the reagent. • 6. Wash plate and add 100 μL/well conjugate, incubate at room temperature for 30 min. • 7. Wash plate and add 100 μL/well substrate, then incubate at room temperature for approximately 30 minutes. Periodically monitor the absorbance at 405 nm (OD405) in the positive control alone well. • 8. Once the OD405 is >1, read the whole plate immediately. Or stop the reaction by adding 100 μL of 5 mM EDTA to each well and read within 60 minutes.

Chain of C3 convertase (CVF:Bb) (P00751 260-764 limits assumed): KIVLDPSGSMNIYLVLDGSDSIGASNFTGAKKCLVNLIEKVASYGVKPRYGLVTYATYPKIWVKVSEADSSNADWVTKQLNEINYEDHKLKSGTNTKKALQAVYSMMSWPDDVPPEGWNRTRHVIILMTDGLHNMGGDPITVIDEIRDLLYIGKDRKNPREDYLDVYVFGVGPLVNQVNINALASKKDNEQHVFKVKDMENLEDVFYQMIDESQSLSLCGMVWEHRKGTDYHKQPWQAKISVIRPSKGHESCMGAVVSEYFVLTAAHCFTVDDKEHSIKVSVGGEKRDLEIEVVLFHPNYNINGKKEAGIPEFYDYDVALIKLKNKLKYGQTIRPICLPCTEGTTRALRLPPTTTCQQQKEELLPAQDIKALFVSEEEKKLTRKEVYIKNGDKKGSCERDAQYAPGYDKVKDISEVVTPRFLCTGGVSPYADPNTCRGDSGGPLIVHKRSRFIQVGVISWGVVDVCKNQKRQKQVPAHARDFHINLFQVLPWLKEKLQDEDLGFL

COc1cc(C)c2[nH]ccc2c1CN1CCN(CCC(C)C)CC1c1ccc(C(=O)O)cc1 (stereo not shown)
IC50 [1]: 3200 nM

C#CCN1CCN(Cc2c(OC)cc(C)c3[nH]ccc23)C(c2ccc(C(=O)O)cc2)C1 (stereo not shown)
IC50 [1]: 1070 nM

COc1cc(C)c2[nH]ccc2c1CN1CCN(CC(F)F)C[C@H]1c1ccc(C(=O)O)cc1
IC50 [1]: 28 nM

COc1cc(C)c2[nH]ccc2c1CN1CCN(CC(F)F)C[C@H]1c1ccc(C(=O)NS(C)(=O)=O)cc1
IC50 [1]: 243 nM | IC50 [2]: 8 nM

COc1cc(Cl)c2[nH]ccc2c1CN1CCN(CC(F)F)C[C@H]1c1ccc(C(=O)O)cc1 [drawing 446]
IC50 [1]: 3150 nM

COc1cc(C)c2[nH]ccc2c1CN1CCN(C(C)C)CC1c1ccc(C(=O)O)cc1 (stereo not shown)
IC50 [1]: 652 nM

COCCN1CCN(Cc2c(OC)cc(C)c3[nH]ccc23)C(c2ccc(C(=O)O)cc2)C1 (stereo not shown)
IC50 [1]: 221 nM

Cc1cc(C2CC2)c(CN2CCN(CC(F)F)C[C@@H]2c2ccc(C(=O)O)cc2)c2cc[nH]c12
IC50 [1]: 163 nM

COc1cc(C)c2[nH]ccc2c1CN1CCN(C2CC2)C[C@H]1c1ccc(C(=O)O)cc1 (single isomer, unassigned)
IC50 [1]: 96 nM

COc1cc(C)c2[nH]ccc2c1CN1CCN(C2CC2)C[C@@H]1c1ccc(C(=O)O)cc1 (single isomer, unassigned)
IC50 [1]: 4380 nM

COc1cc(C)c2[nH]ccc2c1CN1CCN(CC(F)F)CC1c1ccc(C(=O)O)cc1 (stereo not shown)
IC50 [1]: 76 nM | IC50 [2]: 36 nM

COc1cc(Cl)c2[nH]ccc2c1CN1CCN(CC(F)(F)F)C[C@@H]1c1ccc(C(=O)O)cc1
IC50 [1]: > 10000 nM

COc1cc(C)c2[nH]ccc2c1CN1CCN(C)C[C@@H]1c1ccc(C(=O)O)cc1 (single isomer, unassigned)
IC50 [1]: > 10000 nM

COc1cc(C)c2[nH]ccc2c1CN1CCN(C2CCC2)CC1c1ccc(C(=O)O)cc1 (stereo not shown)
IC50 [1]: 2580 nM

COc1cc(C)c2[nH]ccc2c1CN1CCN(CC2CC2)CC1c1ccc(C(=O)O)cc1 (stereo not shown)
IC50 [1]: 2290 nM

COc1cc(C)c2[nH]ccc2c1CN1CCN(Cc2ncco2)C[C@H]1c1ccc(C(=O)O)cc1
IC50 [1]: 9110 nM

COc1cc(C)c2[nH]ccc2c1CN1CCN(CCCF)C[C@H]1c1ccc(C(=O)O)cc1
IC50 [1]: 99 nM

COc1cc(C)c2[nH]ccc2c1CN1CCN(CCCF)CC1c1ccc(C(=O)O)cc1 (stereo not shown)
IC50 [1]: 119 nM | IC50 [2]: 153 nM

COc1cc(C)c2[nH]ccc2c1CN1CCN(CCF)C[C@@H]1c1ccc(C(=O)O)cc1
IC50 [1]: 42 nM

COc1cc(C)c2[nH]ccc2c1CN1CCN(C2CCCC2)CC1c1ccc(C(=O)O)cc1 (stereo not shown)
IC50 [1]: 3880 nM

COc1cc(C)c2[nH]ccc2c1CN1CCN(CC(C)C)CC1c1ccc(C(=O)O)cc1 (stereo not shown)
IC50 [1]: 4670 nM

COc1cc(C)c2[nH]ccc2c1CN1CCN(CCF)CC1c1ccc(C(=O)O)cc1 (stereo not shown)
IC50 [1]: 65 nM | IC50 [2]: 107 nM

COc1cc(C)c2[nH]ccc2c1CN1CCN(CC2CCC2)CC1c1ccc(C(=O)O)cc1 (stereo not shown)
IC50 [1]: 1350 nM

COc1cc(C)c2[nH]ccc2c1CN1CCN(c2nccs2)C[C@H]1c1ccc(C(=O)O)cc1
IC50 [1]: > 10000 nM

CCC(C)CN1CCN(Cc2c(OC)cc(C)c3[nH]ccc23)C(c2ccc(C(=O)O)cc2)C1 (stereo not shown)
IC50 [1]: 6590 nM

COc1cc(C)c2[nH]ccc2c1CN1CCN(CCC(F)F)C[C@H]1c1ccc(C(=O)O)cc1
IC50 [1]: 27 nM | IC50 [2]: 27 nM

[2H]C([2H])([2H])N1CCN(Cc2c(OC)cc(C)c3[nH]ccc23)[C@H](c2ccc(C(=O)O)cc2)C1
IC50 [1]: 65 nM | IC50 [2]: 9 nM

COc1cc(C)c2[nH]ccc2c1C(=O)N1CCN(C)CC1c1ccc(C(=O)O)cc1 (stereo not shown)
IC50 [1]: > 10000 nM

COc1cc(C)c2[nH]ccc2c1CN1CCN(C)C(=O)[C@H]1c1ccc(C(=O)O)cc1
IC50 [1]: 360 nM | IC50 [2]: 1000 nM

COc1cc(C)c2[nH]ccc2c1CN1CCN(CC(C)(F)F)C[C@H]1c1ccc(C(=O)O)cc1
IC50 [1]: 272 nM | IC50 [2]: 211 nM

COc1cc(C)c2[nH]ccc2c1CN1CCN(c2cccnn2)C[C@H]1c1ccc(C(=O)O)cc1
IC50 [1]: > 10000 nM

COc1cc(C)c2[nH]ccc2c1CN1CCN(CC2CCCC2)CC1c1ccc(C(=O)O)cc1 (stereo not shown)
IC50 [1]: 3080 nM

COc1cc(C)c2[nH]ccc2c1CN1CCN(C2COC2)CC1c1ccc(C(=O)O)cc1 (stereo not shown)
IC50 [1]: > 10000 nM

CN1CCN(Cc2cccc3[nH]ccc23)C(c2ccc(C(=O)O)cc2)C1 (stereo not shown)
IC50 [1]: > 10000 nM

COc1cc(C)c2[nH]ccc2c1CN1CCN(CC(F)(F)F)C[C@H]1c1ccc(C(=O)O)cc1
IC50 [1]: 176 nM | IC50 [2]: 174 nM

COc1cc(C)c2[nH]ccc2c1CN1CCN(CC(F)(F)F)C[C@H]1c1ccc(C(=O)NS(C)(=O)=O)cc1
IC50 [1]: 212 nM | IC50 [2]: 382 nM

COc1cc(C)c2[nH]ccc2c1CN1CCN(C2CC2)CC1c1ccc(C(=O)O)cc1 (stereo not shown)
IC50 [1]: 141 nM | IC50 [2]: 29 nM

COc1cc(C)c2[nH]ccc2c1CN1CCN(Cc2ncco2)C[C@@H]1c1ccc(C(=O)O)cc1
IC50 [1]: > 10000 nM

Cc1cc(C2CC2)c(CN2CCN(CC(F)F)C[C@H]2c2ccc(C(=O)O)cc2)c2cc[nH]c12 [drawing 450]
IC50 [2]: 396 nM

Cc1cc(C2CC2)c(CN2CCN(CC(F)(F)F)C[C@H]2c2ccc(C(=O)O)cc2)c2cc[nH]c12
IC50 [1]: 348 nM

COc1cc(C)c2[nH]ccc2c1CN1CCN(C)C[C@H]1c1ccc(C(=O)O)cc1 (single isomer, unassigned)
IC50 [1]: 45 nM | IC50 [2]: 64 nM

CCC(C)N1CCN(Cc2c(OC)cc(C)c3[nH]ccc23)C(c2ccc(C(=O)O)cc2)C1 (stereo not shown)
IC50 [1]: 405 nM

COc1cc(C)c2[nH]ccc2c1CN1CCN(CC(F)F)C[C@@H]1c1ccc(C(=O)O)cc1
IC50 [1]: 80 nM

COc1cc(C)c2[nH]ccc2c1CN1CCN(CCO)C[C@H]1c1ccc(C(=O)O)cc1
IC50 [1]: 350 nM | IC50 [2]: 128 nM

COc1cc(C)c2[nH]ccc2c1CN1CCN(S(C)(=O)=O)CC1c1ccc(C(=O)O)cc1 (stereo not shown)
IC50 [1]: 9330 nM

COc1cc(Cl)c2[nH]ccc2c1CN1CCN(CC(F)F)C[C@H]1c1ccc(C(=O)O)cc1 [drawing 436]
IC50 [1]: 1490 nM

Cc1ccc(CN2CCN(C)CC2c2ccc(C(=O)O)cc2)c2cc[nH]c12 (stereo not shown)
IC50 [1]: 479 nM

COc1cc(Cl)c2[nH]ccc2c1CN1CCN(CC(F)(F)F)CC1c1ccc(C(=O)O)cc1 (stereo not shown)
IC50 [1]: 2700 nM

COc1cc(C)c2[nH]ccc2c1CN1CCN(c2ccccc2)CC1c1ccc(C(=O)O)cc1 (stereo not shown)
IC50 [1]: > 10000 nM

COc1cc(Cl)c2[nH]ccc2c1CN1CCN(CC(F)(F)F)C[C@H]1c1ccc(C(=O)O)cc1
IC50 [1]: 2350 nM

COc1cc(C)c2[nH]ccc2c1CN1CCN(C(C)CC(F)(F)F)C[C@H]1c1ccc(C(=O)O)cc1 (stereo partly shown)
IC50 [2]: 110 nM

COc1cc(C)c2[nH]ccc2c1CN1CC2(CC2)N(C)C[C@H]1c1ccc(C(=O)O)cc1
IC50 [1]: 7390 nM

COc1cc(C)c2[nH]ccc2c1CN1CCN(Cc2ncc[nH]2)C[C@@H]1c1ccc(C(=O)O)cc1
IC50 [2]: > 10000 nM

COc1cc(C)c2[nH]ccc2c1CN1CCN(CC(F)F)C[C@H]1c1ccc(C(=O)NS(=O)(=O)C2CC2)cc1
IC50 [1]: 520 nM

COc1cc(C)c2[nH]ccc2c1CN1CCN(Cc2ccccc2)CC1c1ccc(C(=O)O)cc1 (stereo not shown)
IC50 [1]: 5240 nM

COc1cc(C)c2[nH]ccc2c1CN1CCN(C(C)=O)CC1c1ccc(C(=O)O)cc1 (stereo not shown)
IC50 [1]: > 10000 nM

COc1cc(C)c2[nH]ccc2c1CN1CCN(CCO)CC1c1ccc(C(=O)O)cc1 (stereo not shown)
IC50 [1]: 119 nM

COc1cc(C)c2[nH]ccc2c1CN1CCNCC1c1ccc(C(=O)O)cc1 (stereo not shown)
IC50 [1]: > 10000 nM

CCCCN1CCN(Cc2c(OC)cc(C)c3[nH]ccc23)C(c2ccc(C(=O)O)cc2)C1 (stereo not shown)
IC50 [1]: 980 nM

COc1cc(C)c2[nH]ccc2c1CN1CCN(c2ncccn2)C[C@H]1c1ccc(C(=O)O)cc1
IC50 [1]: > 10000 nM
